“Also recorded” adds a separate entry of the source.
Columns and labels:
[1] = test system: H-Ras farnesylation in NIH3T3 cells; experiment: H-Ras mobility shift immunoblot in NIH3T3 cells; type: cell-based; conditions: 48 hours
Experimental: K562 cells were treated with modified compounds for 72 hours and then cell number was counted. IC50 values of cell viability relative to the DMSO were measured. […] Data represent the mean+/−S.D. of two measurements from two independent experiments. *, P<0.05 compared with the value for DMSO. […] Whole cell lysates from cells treated with DMSO, P5-H6, P61-A6, GGTI (GGTI-298), FTI (BMS-225975) or RabGGTI (P49-F6) for 48 hours were prepared and processed for immunoblot analysis using antibody against unprenylated form of Rap1 (C: upper panel), Total-Rap1 (C: middle panel), H-Ras (D: upper panel), Rab5b (E: upper panel) or actin (C, D, and E: lower panel). The immunoblots shown represent two independent experiments for each treatment.
This was examined by using a farnesylated protein H-Ras.

[2] = test system: Rap1 geranylgeranylation in NIH3T3 cells; experiment: Unprenylated Rap1 immunoblot in NIH3T3 cells; type: cell-based; conditions: 48 hours
Experimental: The inhibition of GGTase-I catalyzed protein geranylgeranylation was assessed by examining the accumulation of unprenylated Rap1. To measure the level of unprenylated Rap1, cells were cultured in DMEM plus 10% (v/v) FBS overnight, and then DMSO or appropriate inhibitors were added. Incubation was continued for 48 hours. The cells were harvested and lysed in lysis buffer (20 mM Tris-HCl, pH 7.5, 150 mM NaCl, 1 mM EDTA, 1% NP-40 and 1× Protease Inhibitor Cocktail). Whole cell lysates of NIH3T3 cells were electrophoresed on a 12% SDS-PAGE, transferred to nitrocellulose membranes and immunoblotted with the antibody against unprenylated form of Rap1 (Santa Cruz Biotechnology catalog number sc-1482, goat), total-Rap1 (Santa Cruz: sc-65) or actin (Sigma: A4700). Actin was used as a loading control.

GGTase-I = biological target: T1, GGTase-I (Rattus norvegicus, UniProt P53610+Q04631); experiment: In vitro GGTase-I enzyme assay (IC50, kinetics); type: biochemical
T1 construct: purchased JENA BIOSCIENCE
In short: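 Rat GGTase-I (50 nM) with 0.5 μM [3H]-GGPP and 2 μM MBP-RhoA in Tris-HCl pH 7.5, MgCl2, ZnCl2, DTT, 2.5% DMSO, 10 min at 30 °C; radiolabel incorporation by TCA filter binding and scintillation. Kinetics: 5 min reactions varying GGPP or RhoA at fixed other components.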

FTase = biological target: T2, FTase (Rattus norvegicus, UniProt Q02293+Q04631); experiment: In vitro FTase assay (K-Ras4B substrate, [3H]FPP); type: biochemical; conditions: concentration increased to 50,000 nM
T2 construct: purchased JENA BIOSCIENCE
Description: To further characterize the pilot library, inhibitors of protein farnesyltransferase were identified. This was accomplished by using K-Ras4B as a substrate protein, tritiated farnesylpyrophosphate ([^3H]FPP) and protein farnesyltransferase. See Finegold, A. A., Johnson, D. I., Farnsworth, C. C., Gelb, M. H., Judd, S. R., Glomset, J. A. and Tamanoi, F. (1991) Protein geranylgeranyltransferase of Saccharomyces cerevisiae is specific for Cys-Xaa-Xaa-Leu motif and requires the CDC43 gene product but not the DPR1 gene product. Proc. Natl. Acad. Sci. USA 88, 4448-4452. […] On the other hand, the structure of the compounds P1-F11, P2-B7 and P2-E9 resemble those of GGTIs. The FTI P1-F11 resembles the GGTI P1-F10, while the FTI P2-B7 resembles the GGTI P2-C10. The FTI P2-E9 is similar to the GGTI P2-G3. Similarity of some GGTI and FTI compounds may point to common structural features between the two closely related enzymes. As described before, FTase and GGTase I have similar three-dimensional structures and a shared alpha subunit. On the other hand, FTase specific inhibitors may recognize a region(s) that is different between the two enzymes.
Examples 2-8 illustrate assays of bioactivity. These methods are applicable to the compounds of the present invention having the particular linkers and scaffolds described herein, to determine their activity. […] Varying concentrations of the two compounds were added to each enzyme reaction. The FTase (protein farnesyltransferase) assay was carried out using K-Ras4B as a substrate protein, FTase (JENA Bioscience, San Diego, Calif.) and [3H]farnesyl pyrophosphate. Incubation was for 30 min at 37° C.
GGTase-I and FTase activities were determined by following the incorporation of radiolabeled isoprenoid [^3H]-geranylgeranyl or [^3H]-farnesyl into substrate proteins. FTase or GGTase-I (50 nM) were used to initiate reactions containing 0.4 μM of [^3H]-FPP or 0.5 μM of [^3H]-GGPP and 2 μM of MBP-tagged substrates (K-Ras4B for FTase; RhoA for GGTase-I) in 20 μl of buffer {50 mM Tris-HCl (pH 7.5), 10 mM MgCl2, […] and 5 mM DTT}. Inhibitors were added at the indicated concentrations. The final DMSO concentration was 2.5% for all samples.
Reactions were carried out for 10 min at 30° C. The reaction mixture was spotted onto a filter paper, treated with 10% trichloroacetic acid (TCA) followed by ethanol and acetone washing. The filter was counted using a scintillation counter. Kinetic assays in which the GGPP concentration was varied employed fixed concentrations of GGTase-I and RhoA, and reactions were carried out for 5 min. Similarly, fixed concentrations of GGTase-I and GGPP were used when the amount of RhoA was varied.

RabGGTase = biological target: T3, RabGGTase (Rattus norvegicus, UniProt Q08602+Q08603); experiment: In vitro RabGGTase (GGTase-II) assay with REP-1; type: biochemical; conditions: up to 10,000 nM
T3 construct: purchased JENA BIOSCIENCE
T3 sequence (Q08602 1-567): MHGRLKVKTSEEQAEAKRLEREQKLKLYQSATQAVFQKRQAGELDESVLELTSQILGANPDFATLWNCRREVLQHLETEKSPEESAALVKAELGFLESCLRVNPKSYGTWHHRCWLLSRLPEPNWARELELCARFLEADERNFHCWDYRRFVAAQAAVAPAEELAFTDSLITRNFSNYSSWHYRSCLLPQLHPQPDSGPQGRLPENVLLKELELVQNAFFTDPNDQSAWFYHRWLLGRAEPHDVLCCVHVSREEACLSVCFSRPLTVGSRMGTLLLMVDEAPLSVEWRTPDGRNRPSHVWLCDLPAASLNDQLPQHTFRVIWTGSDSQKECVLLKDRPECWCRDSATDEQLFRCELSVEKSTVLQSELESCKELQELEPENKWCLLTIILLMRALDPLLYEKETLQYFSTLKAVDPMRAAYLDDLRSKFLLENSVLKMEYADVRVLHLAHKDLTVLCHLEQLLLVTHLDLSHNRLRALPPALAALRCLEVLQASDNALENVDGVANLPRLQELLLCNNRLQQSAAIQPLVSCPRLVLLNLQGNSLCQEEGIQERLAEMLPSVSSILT
T3 sequence (Q08603 1-331): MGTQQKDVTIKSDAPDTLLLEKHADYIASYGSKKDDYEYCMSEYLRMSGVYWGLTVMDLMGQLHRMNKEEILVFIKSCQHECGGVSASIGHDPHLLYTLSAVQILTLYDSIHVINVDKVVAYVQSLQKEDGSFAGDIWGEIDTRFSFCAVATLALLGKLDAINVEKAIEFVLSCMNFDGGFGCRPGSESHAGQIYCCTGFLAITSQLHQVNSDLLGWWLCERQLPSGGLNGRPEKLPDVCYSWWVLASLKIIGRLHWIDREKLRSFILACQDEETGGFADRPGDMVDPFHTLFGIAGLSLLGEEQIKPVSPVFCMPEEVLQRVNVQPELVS
Experimental: The GGTase-I assay was carried out using RhoA as a substrate protein, GGTase-I (JENA Bioscience) and [3H]geranylgeranyl pyrophosphate. Incubation was for 30 min at 37° C. GGTase-II (or RabGGTase) assay was carried out using YPTI as a substrate protein, GGTase-II (Calbiochem, San Diego, Calif.) plus REP1 (Calbiochem) and [3H]geranylgeranyl pyrophosphate. Incubation was for 30 min at 37° C. FIGS. 20D-20F show the three dimensional structure of GGTase I (D), FTsse (E) and GGTase II (F) which can be obtained from X-ray diffraction studies of protein crystals.
For RabGGTase assays, the reaction contained the following components in 20 μl; 0.625 μl of [^3H]-GGPP (0.7 μM), 25 nM RabGGTase, 0.6 μM REP-1, 0.6 μM purified Rab7 or Ypt1 protein, 40 mM HEPES (pH 7.5), 150 mM NaCl, 5 mM DTT, 3 mM MgCl2 and 0.3% CHAPS. Reactions were carried out for 20 min at 37° C. and the products were analyzed as described above for the GGTase-I reaction. Graphing and Michaelis-Menten analysis were performed using Prism version5 (GraphPad, San Diego Calif.).

K562 cells = experiment: K562 cell growth inhibition; type: cell-based, human; conditions: 72 hours
In short: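 Human erythroleukemia K562 cells exposed to compound for 72 hours. Cell number measured with CCK-8 and viability expressed relative to the DMSO control.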

Row | specificity among GGTase-I, FTase and GGTase-II (GGTase-I; FIGS. 20A-20C, varying concentrations) | Ki (GGTase-I; Michaelis-Menten analysis) | IC50 (GGTase-I; Tables 5, 14, read-out: In vitro (enzyme assay) IC50, GGTase I) | inhibition of FTase activity (FTase) | inhibition of RabGGTase (RabGGTase) | IC50 (K562 cells; Homo sapiens, K562, FIG. 36A, read-out: IC50, inhibition of proliferation of K562 cells) | Compound | mobility shift of H-Ras (protein farnesylation) [1] | appearance of the unprenylated (unprocessed) Rap1 band [2] | appearance of the unprenylated Rap1 band at 2.5 μM ([2]; 2.5 μM) | mode of GGTase-I inhibition with respect to GGPP (GGTase-I; varying GGPP, fixed RhoA) | mode of GGTase-I inhibition with respect to the protein substrate (RhoA) (GGTase-I; varying RhoA, fixed GGPP) | inhibition of proliferation of K562 cells (K562 cells; FIG. 23)
1 | – | – | – | – | – | – | Cn1cncc1CN1C[C@@H](Cc2ccccc2)N(S(=O)(=O)c2cccs2)Cc2cc(C#N)ccc21 [BMS-225975] | slowed the mobility | – | – | – | – | –
2 | specifically inhibit GGTase I | 408 ± 32 nM | 466 nM | no significant inhibition | little inhibition | 20000 nM | Cc1ccccc1S(=O)(=O)N1[C@@H](c2ccc(Cl)cc2)C(C(=O)O)=C[C@H]1C(C)(C)C (relative stereo) [P5-H6] | – | in a dose dependent manner; also recorded: inhibits Rap1 geranylgeranylation | not seen | do not compete with GGPP; also recorded: uncompetitive inhibitors | compete with a substrate protein; also recorded: competitive inhibitors | inhibit the growth of the K562 cells

— US8815935B2, “Inhibitors of protein prenyltransferases” (The Regents of the University of California, priority 2008, dated 2014)
